Legend:
[1] = target: T1, Estrogen receptor (Mus musculus) (UniProt O08537+P19785); conditions: Uterus
Description: Uterine wet weight in ovariectomized mice after 4 weeks of subcutaneous administration at 4 umol/kg (n=5)

Estrogen receptor = target: T2, Estrogen receptor (Homo sapiens, UniProt P03372); assay: Inhibition of [3H]17-beta-estradiol binding to human estrogen receptor alpha
T2 sequence (P03372 whole entry): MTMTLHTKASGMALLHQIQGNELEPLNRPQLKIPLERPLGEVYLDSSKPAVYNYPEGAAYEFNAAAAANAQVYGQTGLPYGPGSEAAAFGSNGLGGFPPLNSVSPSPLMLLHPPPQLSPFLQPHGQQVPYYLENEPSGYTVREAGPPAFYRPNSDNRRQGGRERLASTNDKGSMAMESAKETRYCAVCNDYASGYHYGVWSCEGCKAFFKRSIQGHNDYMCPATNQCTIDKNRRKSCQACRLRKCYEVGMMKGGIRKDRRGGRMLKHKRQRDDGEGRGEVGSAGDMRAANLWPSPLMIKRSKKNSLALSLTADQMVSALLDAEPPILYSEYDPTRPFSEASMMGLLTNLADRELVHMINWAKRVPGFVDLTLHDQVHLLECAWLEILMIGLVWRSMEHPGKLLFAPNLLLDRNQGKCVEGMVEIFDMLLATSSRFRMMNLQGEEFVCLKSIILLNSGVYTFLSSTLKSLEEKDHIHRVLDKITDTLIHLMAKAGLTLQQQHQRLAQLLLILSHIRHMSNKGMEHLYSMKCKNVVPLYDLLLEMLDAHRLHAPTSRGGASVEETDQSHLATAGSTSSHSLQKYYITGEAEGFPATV

[2] = target: T1, Estrogen receptor (Mus musculus)
Estrogen receptor beta = Estrogen receptor beta (Homo sapiens, UniProt Q92731); assay: Inhibition of [3H]17-beta-estradiol binding to human estrogen receptor beta
Sequence of Estrogen receptor beta (Q92731 whole entry): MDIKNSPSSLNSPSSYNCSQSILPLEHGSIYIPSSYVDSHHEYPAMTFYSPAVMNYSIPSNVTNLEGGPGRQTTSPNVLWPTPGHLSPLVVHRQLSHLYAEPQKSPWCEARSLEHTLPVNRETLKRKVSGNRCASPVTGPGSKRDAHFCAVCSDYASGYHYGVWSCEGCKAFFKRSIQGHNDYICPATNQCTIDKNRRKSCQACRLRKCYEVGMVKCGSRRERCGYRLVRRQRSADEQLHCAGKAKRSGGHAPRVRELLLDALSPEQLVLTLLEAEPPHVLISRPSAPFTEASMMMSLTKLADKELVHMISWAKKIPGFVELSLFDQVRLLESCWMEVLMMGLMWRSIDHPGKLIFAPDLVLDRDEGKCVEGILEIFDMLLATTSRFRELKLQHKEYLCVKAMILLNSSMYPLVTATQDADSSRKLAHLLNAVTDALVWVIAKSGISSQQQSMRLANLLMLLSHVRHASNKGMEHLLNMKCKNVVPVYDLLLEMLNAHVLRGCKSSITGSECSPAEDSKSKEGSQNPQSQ

T1 sequence (O08537 whole entry, looked up): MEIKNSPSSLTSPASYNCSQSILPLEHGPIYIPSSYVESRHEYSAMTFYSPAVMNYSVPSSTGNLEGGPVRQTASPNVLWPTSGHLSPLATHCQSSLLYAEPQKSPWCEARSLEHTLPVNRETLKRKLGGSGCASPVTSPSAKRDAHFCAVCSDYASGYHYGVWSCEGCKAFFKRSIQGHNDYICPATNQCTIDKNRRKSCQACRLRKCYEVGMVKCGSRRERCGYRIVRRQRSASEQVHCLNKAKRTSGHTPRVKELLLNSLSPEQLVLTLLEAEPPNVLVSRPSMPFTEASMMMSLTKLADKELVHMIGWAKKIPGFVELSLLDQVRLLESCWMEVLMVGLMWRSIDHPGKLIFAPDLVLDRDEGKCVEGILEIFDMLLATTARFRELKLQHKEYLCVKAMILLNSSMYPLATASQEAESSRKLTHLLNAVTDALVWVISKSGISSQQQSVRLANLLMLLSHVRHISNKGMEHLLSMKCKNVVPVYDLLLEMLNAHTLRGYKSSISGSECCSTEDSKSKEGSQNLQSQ
T1 sequence (P19785 whole entry, looked up): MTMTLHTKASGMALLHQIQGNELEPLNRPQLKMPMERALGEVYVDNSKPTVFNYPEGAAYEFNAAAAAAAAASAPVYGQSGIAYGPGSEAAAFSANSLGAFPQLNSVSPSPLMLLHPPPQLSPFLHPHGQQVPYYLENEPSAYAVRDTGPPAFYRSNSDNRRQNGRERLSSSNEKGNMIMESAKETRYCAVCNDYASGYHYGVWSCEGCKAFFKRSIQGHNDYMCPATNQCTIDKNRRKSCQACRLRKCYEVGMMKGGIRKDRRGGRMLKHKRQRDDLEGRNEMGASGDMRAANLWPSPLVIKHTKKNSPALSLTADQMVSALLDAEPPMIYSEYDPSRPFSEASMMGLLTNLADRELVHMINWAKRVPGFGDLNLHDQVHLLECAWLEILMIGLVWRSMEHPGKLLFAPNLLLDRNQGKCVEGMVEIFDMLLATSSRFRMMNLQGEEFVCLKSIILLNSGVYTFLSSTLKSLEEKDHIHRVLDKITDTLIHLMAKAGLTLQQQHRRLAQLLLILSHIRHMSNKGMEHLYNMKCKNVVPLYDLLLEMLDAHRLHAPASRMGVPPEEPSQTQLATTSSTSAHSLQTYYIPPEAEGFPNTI

Wet weight [1] [mg] | IC50 (Estrogen receptor) [nM] | BMD [2] [mg/cm3] | IC50 (Estrogen receptor beta) [nM] | Structure (SMILES)
26.2 | 18 | 480 | 31 | CN(C)CCOc1ccc(Cn2c3ccc(O)cc3c3sc4cc(O)ccc4c32)cc1
28.5 | 18 | 444 | 16.6 | Oc1ccc2c(c1)sc1c3ccccc3n(Cc3ccc(OCCN4CCCCCC4)cc3)c21
44.2 | 2.84 | 548 | 11 | Oc1ccc2c(c1)sc1c3cc(O)ccc3n(Cc3ccc(OCCN4CCCCC4)cc3)c21
37.7 | 31.2 | 479 | 16.4 | CCN(CC)CCOc1ccc(Cn2c3ccc(O)cc3c3sc4cc(O)ccc4c32)cc1
34 | 39 | 436 | 35 | Oc1ccc2c(c1)sc1c3ccccc3n(Cc3ccc(OCCN4CCCCC4)cc3)c21
27.6 | 27.2 | 505 | 53.9 | Oc1ccc2c(c1)sc1c3ccccc3n(Cc3ccc(OCCN4CCCC4)cc3)c21
28.2 | 51.4 | 474 | 45.6 | CN(C)CCOc1ccc(Cn2c3ccccc3c3sc4cc(O)ccc4c32)cc1
27 | 126 | 455 | 215 | Oc1ccc2c(c1)sc1c3ccccc3n(Cc3ccc(OCCN4CCOCC4)cc3)c21
34.9 | 57.4 | 448 | 25 | CCN(CC)CCOc1ccc(Cn2c3ccccc3c3sc4cc(O)ccc4c32)cc1

Structure (SMILES) | Wet weight [1] [mg] | IC50 (Estrogen receptor) [nM] | BMD [2] [mg/cm3] | IC50 (Estrogen receptor beta) [nM]
Oc1ccc2c(c1)sc1c3cc(O)ccc3n(Cc3ccc(OCCN4CCCCCC4)cc3)c21 | 44.2 | 3.34 | 534 | 7.26
Oc1ccc2c(c1)sc1c3cc(O)ccc3n(Cc3ccc(OCCN4CCCC4)cc3)c21 | 30.7 | 6 | 469 | 20.2
Oc1ccc2c(c1)sc1c3cc(O)ccc3n(Cc3ccc(OCCN4CCOCC4)cc3)c21 | 26.3 | 10 | 470 | 21.4
